Data reported in publication PMC7005646, “Overcoming resistance to anabolic SARM therapy in experimental cancer cachexia with an HDAC inhibitor” (EMBO Molecular Medicine, 2020).

How the values were obtained:
C‐26 cells = assay: Cell viability assay (CCK‐8); type: cell-based, mouse; conditions: up to 10 µM, 48 hours
Description: Cell viability assays were conducted using the CCK‐8 kit (Dojindo Molecular Technologies, Inc; Kumamoto, Japan). Briefly, 1,250 cells per well were plated on 96‐well plates and allowed to adhere overnight.

C‐26 tumor‐bearing mice [1] = assay: Combined androgen and AR‐42 study (Study 4), C‐26 model; type: in vivo, mouse
Description: These studies were performed as previously described (Tseng et al, 2015a) with modifications. Tumors were established in the right flank of CD2F1 mice by subcutaneous injection of C‐26 cells (0.5 × 10^6 cells in 0.1 ml). […] TFM‐4AS‐1 (a potent experimental SARM), DHT, and vehicles were administered by subcutaneous injection.
Similar to Study 2, the tumor‐free control group was maintained at six animals, whereas 10 animals were included in each of the 6 tumor‐bearing groups. Six days after cell injection, animals with palpable tumors were treated once daily for 13 days with vehicles for AR‐42 and TFM‐4AS‐1/DHT (n = 9), AR‐42 (10 mg/kg; TFM‐4AS‐1/DHT vehicle; n = 10), TFM‐4AS‐1 (10 mg/kg; AR‐42 vehicle; n = 9), DHT (3 mg/kg; AR‐42 vehicle; n = 10), the combination of AR‐42 and TFM‐4AS‐1 (10 mg/kg each; n = 9), or the combination of AR‐42 (10 mg/kg) and DHT (3 mg/kg; n = 10). Grip strength was measured, and tissues were collected as in the previous studies.
Forelimb grip strength was measured using Bio‐GS3 Grip Strength Test Meter (Forceleader DBA Bioseb, Pinellas Park, FL). Each mouse was held by the base of its tail and lowered over the apparatus until its forepaws grasped the metal pull bar. […] The force applied to the bar at the moment of release was recorded as the peak force. […]

[2] = test system: serum‐luteinizing hormone; assay: Serum luteinizing hormone radioimmunoassay, Study 1; type: in vivo, mouse; conditions: Study 1, day 18, 15 mg/kg, C‐26 tumor‐bearing mice
Description: Luteinizing hormone was measured in serum by a two‐site sandwich radioimmunoassay performed by the Ligand Assay and Analysis Core at the Center for Research in Reproduction, University of Virginia School of Medicine (Charlottesville, VA). Serum was isolated by centrifugation (2,000 g, 15 min) from whole blood samples collected from mice immediately post‐mortem, and then stored at −80°C until shipment on dry ice.

serum cytokines = assay: Serum cytokine panel (multiplex), terminal samples from Study 2; type: in vivo, mouse; conditions: GTx‐024 15 mg/kg, mean ± SD
Description: This confirmatory study was performed exactly as Study 1 with expanded animal numbers. Tumor‐free control groups were maintained at 6 animals each, whereas 10 animals were included in each of the tumor‐bearing groups. […] Grip strength was measured on study days 0 (baseline) and 16. Due to rapid model progression, this study was terminated on day 17 after only 12 days of treatment.
Serum cytokine panel analyses were performed by a commercial vendor (Eve Technologies, Calgary, Canada) as previously described (Tseng et al, 2015a). Serum interleukin‐6 (IL‐6) was measured using a commercial ELISA kit (R&D Systems, Minneapolis, MN, USA) according to the manufacturer's instructions.

[3] = male rats, 0.5 mpk; ref Xenobiotica. 2013 Nov;43(11):993-1009; cited from earlier work
pSTAT3 (Y705) = assay: pSTAT3/tSTAT3 Western blot of gastrocnemius muscle; type: in vivo, mouse
Description: Western blots from all studies were performed on gastrocnemius muscle from representative animals lysed by Nonidet P‐40 isotonic lysis buffer [50 mM Tris–HCl, pH 7.5, 120 mM NaCl, 1% (v/v) Nonidet P‐40, 1 mM EDTA, 50 mM NaF, 40 mM glycerophosphate, and […] each of protease inhibitors (aprotinin, pepstatin, and leupeptin)]. Equivalent amounts of protein from each sample, as determined by the Bradford assay (Bio‐Rad), were resolved by SDS–PAGE and then transferred (semi‐dry) onto Immobilon nitrocellulose membranes (Millipore, Bellerica, MA). Membranes were washed twice with TBST [Tris‐buffered saline (TBS) containing 0.1% Tween‐20], blocked with 5% non‐fat milk in TBST for 1 h, and then washed an additional three times. Membranes were incubated with specific primary antibody in TBST (1:1,000) at 4°C overnight, washed three times (TBST), and then incubated with appropriate goat anti‐rabbit or anti‐mouse IgG–horseradish peroxidase‐conjugated secondary antibodies (1:5,000) at room temperature (1 h). Following additional washes (TBST), immunoblots were visualized as appropriate by ECL chemiluminescence (Amersham Biosciences, Little Chalfont, United Kingdom) or Duration HRP Chemiluminescence (Alkali Scientific, Florida, United States). Primary antibodies: phospho‐STAT3 (Tyr705) (D3A7) XP® rabbit mAb #9145, STAT3 (124H6) mouse mAb #9139 (Cell Signaling Technology, Danvers, MA); α‐tubulin (B‐7), sc‐5286 (Santa Cruz Biotechnologies, Santa Cruz, CA); androgen receptor (EP670Y), ab52615 (Abcam, Cambridge, MA) and GAPDH (6C5), sc‐32233 (Santa Cruz Biotechnologies, Santa Cruz, CA).

LLC tumor‐bearing mice = assay: AR‐42/GTx‐024 combination study in the LLC cachexia model (Study 5); type: in vivo, mouse
Description: This study was performed as previously described (Tseng et al, 2015a) with modifications. Tumors were established in the right hindlimb of male C57BL/6NHsd mice by intramuscular injection of LLC cells (0.5 × 10^6 cells in 0.05 ml). Similar to Study 3, the tumor‐free control group was maintained at six animals, whereas 12 animals were included in each of the tumor‐bearing groups. […] Grip strength, body weight, and food consumption were measured, and tissues were collected as in the previous C‐26 studies.

[4] = GTx‐024 plasma pharmacokinetics, LLC tumor‐bearing C57BL/6NHsd mice; type: in vivo, mouse
Description: Blood was collected by cardiac puncture into heparinized tubes (BD Microtainer, Becton, Dickinson and Company, Franklin Lakes, NJ, USA) and immediately centrifuged at room temperature for 3 min at 4,200 RCF. Plasma was removed and placed on dry ice prior to storage at −80°C until analysis. Bioanalytical analyses were conducted as previously described (Cheng et al, 2016) by Charles River Laboratories, Inc. (Wilmington, MA, USA). Non‐compartmental analysis was performed using the PKNCA package in R version 3.6.0.

C‐26 tumor‐bearing mice [5] = assay: Initial AR‐42/GTx‐024 combination study (Study 1), male C‐26 tumor‐bearing mice; type: in vivo, mouse
[6] = C‐26 Tumor‐bearing, AR‐42 10 mg/kg, or both
[7] = male, C57BL/6NHsd, mouse, single 15 mg/kg oral dose, plasma
[8] = Study 1, male, day 18, GTx‐024 15 mg/kg, AR‐42 10 mg/kg, or both

What does the source list for `C[C@]12CCC(=O)C[C@@H]1CC[C@@H]1[C@@H]2CC[C@]2(C)[C@@H](O)CC[C@@H]12` [DHT, dihydrotestosterone]?
direct effects on C‐26 cell viability (C‐26 cells): did not detect direct effects; C‐26 tumor growth (C‐26 tumor‐bearing mice [1]; Study 4, DHT alone 3 mg/kg, after 8 days of administration): tumor growth was significantly suppressed

Which “direct effects on C‐26 cell viability” value (C‐26 cells) does the source give for `C[C@](O)(COc1ccc(C#N)cc1)C(=O)Nc1ccc(C#N)c(C(F)(F)F)c1` [GTx‐024, (S)‐N‐(4‐cyano‐3‐(trifluoromethyl)phenyl)‐3‐(4‐cyanophenoxy)‐2‐hydroxy‐2‐methylpropanamide] here?
The value was “did not detect differences in the direct effects”.

And the “serum‐luteinizing hormone” value [2]?
The value was “suppressed serum‐luteinizing hormone”.

And the “GM‐CSF, serum” value (serum cytokines; [6])?
The value was 17.35 ± 4.33 pg/mL.

And the “G‐CSF, serum” value (serum cytokines; [6])?
Its value is 2446.63 ± 1625.70 pg/mL.

And the “IL‐6, serum” value (serum cytokines; [6])?
The value was 397.54 ± 341.43 pg/mL.

What about the “IL‐17, serum” value (serum cytokines; [6]) of the same compound?
The value was 1.75 ± 1.28 pg/mL.

What about the “IP‐10, serum” value (serum cytokines; [6]) of the same compound?
The value was 154.76 ± 17.98 pg/mL.

What about the “KC, serum” value (serum cytokines; [6]) of the same compound?
Its value is 288.89 ± 154.46 pg/mL.

And the “LIF, serum” value (serum cytokines; [6])?
The value was 45.26 ± 21.57 pg/mL.

And the “LIX, serum” value (serum cytokines; [6])?
The value was 5234.39 ± 4771.34 pg/mL.

And the “M‐CSF, serum” value (serum cytokines; [6])?
The value was 22.23 ± 9.45 pg/mL.

What about the “GM‐CSF, serum” value (serum cytokines; Tumor‐free) of the same compound?
Its value is 13.27 ± 4.62 pg/mL.

And the “G‐CSF, serum” value (serum cytokines; Tumor‐free)?
The value was 338.39 ± 71.70 pg/mL.

What about the “IL‐6, serum” value (serum cytokines; Tumor‐free) of the same compound?
The value was 2.45 ± 1.31 pg/mL.

What about the “IL‐17, serum” value (serum cytokines; Tumor‐free) of the same compound?
The value was 5.01 ± 1.18 pg/mL.

And the “IP‐10, serum” value (serum cytokines; Tumor‐free)?
The value was 145.68 ± 48.83 pg/mL.

What about the “KC, serum” value (serum cytokines; Tumor‐free) of the same compound?
The value was 90.02 ± 17.69 pg/mL.

And the “LIF, serum” value (serum cytokines; Tumor‐free)?
The value was 2.50 ± 2.34 pg/mL.

What about the “LIX, serum” value (serum cytokines; Tumor‐free) of the same compound?
Its value is 1316.67 ± 1662.66 pg/mL.

And the “M‐CSF, serum” value (serum cytokines; Tumor‐free)?
The value was 27.23 ± 10.09 pg/mL.

What about the AUCinf [3] of the same compound?
The AUCinf was “approximately 4.3 ug*hr/mL”.

What about the pSTAT3 in gastrocnemius (pSTAT3 (Y705); female C‐26 tumor‐bearing mice, Study 3) of the same compound?
Its pSTAT3 in gastrocnemius is “reduced levels of pSTAT3 activation”.

And the pSTAT3 in gastrocnemius (pSTAT3 (Y705); male C‐26 tumor‐bearing mice, Study 1)?
The pSTAT3 in gastrocnemius was “no apparent effect”.

What about the LLC tumor growth (LLC tumor‐bearing mice; Study 5, 15 mg/kg daily oral) of the same compound?
The LLC tumor growth was “stimulated LLC tumor growth”.

What about the LLC tumor growth (LLC tumor‐bearing mice; repeat of Study 5, 0.5 mg/kg daily oral) of the same compound?
The LLC tumor growth was “did not promote LLC tumor growth”.

What about the “response of body weight and skeletal muscle mass loss” value (LLC tumor‐bearing mice; repeat of Study 5, 10 mg/kg AR‐42, 0.5 mg/kg GTx‐024, or both) of the same compound?
Its value is “did not respond”.

What about the “projected mouse exposure at 0.5 mpk over rat exposure at 0.5 mpk” value ([4]; 28.8 vs 4.3 ug*hr/mL) of the same compound?
Its value is 6.7 fold.

What about the “exposure projected for 0.5 mg/kg” value ([4]; 30‐fold dose reduction from 15 mg/kg, mouse) of the same compound?
The value was ~ 28.8 μg*h/ml.

And the AUC(0-inf) [4, 7]?
The AUC(0-inf) was 863 µg·h/mL.

What about the AUC(0-t) [4, 7] of the same compound?
Its AUC(0-t) is 721 µg·h/mL.

And the Cmax [4, 7]?
The Cmax was 25800 ng/mL.

And the half-life [4, 7]?
Its half-life is 18.1 h.

And the “body weight in tumor‐free controls” value (C‐26 tumor‐bearing mice [5]; Study 1, 15 mg/kg daily oral)?
The value was “did not cause body weight loss”.

And the “terminal body weight corrected for tumor mass” value (C‐26 tumor‐bearing mice [5]; Study 1, male, day 18, 13 days daily oral, GTx‐024 15 mg/kg, AR‐42 10 mg/kg, or both)?
Its value is 79.0 ± 11.2 % of tumor‐free controls.

And the terminal gastrocnemius mass (C‐26 tumor‐bearing mice [5]; [8])?
Its terminal gastrocnemius mass is 84 ± 11.3 % of tumor‐free controls.

And the terminal quadriceps mass (C‐26 tumor‐bearing mice [5]; [8])?
Its terminal quadriceps mass is 80.0 ± 9.1 % of tumor‐free controls.

Which “sparing of body weight or mass of gastrocnemius or quadriceps” value (C‐26 tumor‐bearing mice [1]; Study 4, monotherapy 10 mg/kg subcutaneous) does the source give for `CN1C(=O)C=C[C@]2(C)[C@H]3CC[C@]4(C)[C@@H](C(=O)Nc5ccccc5C(F)(F)F)CC[C@H]4[C@@H]3CC[C@@H]12` [TFM‐4AS‐1] here?
The value was “did not spare body weight”.
